Assay results: patent publication US4029671A, “3-[(5-nitro-2-imidazolyl)pyrazol-5-yl]oxamic acid derivatives” (priority 1976, dated 1977)
Converted amounts (≈) assume the structure as drawn. Structures can show the parent of a compound that is named as a salt.

Tests used:
[1] = test system: Bacteroides fragilis sp. fragilis 110; experiment: Agar dilution susceptibility of anaerobic bacteria (Chart 1); format: cell-based; conditions: agar dilution, 37° C., Bacteroides fragilis sp. fragilis 110; for MIC: Bacteroides fragilis, 24 h, read-out: 24 Hr. MIC
[2] = test system: Bacteroides fragilis sp. fragilis 111; experiment: as above; format: cell-based; conditions: agar dilution, 37° C., Bacteroides fragilis sp. fragilis 111; for MIC: Bacteroides fragilis, 24 h, read-out: 24 Hr. MIC
[3] = test system: Bacteroides fragilis sp. fragilis 1451; experiment: as above; format: cell-based; conditions: agar dilution, 37° C., Bacteroides fragilis sp. fragilis 1451; for MIC: Bacteroides fragilis, 24 h, read-out: 24 Hr. MIC
[4] = test system: Bacteroides fragilis sp. fragilis 1470; experiment: as above; format: cell-based; conditions: agar dilution, 37° C., Bacteroides fragilis sp. fragilis 1470; for MIC: Bacteroides fragilis, 24 h, read-out: 24 Hr. MIC
[5] = test system: Bacteroides fragilis sp. fragilis 9; experiment: as above; format: cell-based; conditions: agar dilution, 37° C., Bacteroides fragilis sp. fragilis 9; for MIC: Bacteroides fragilis, 24 h, read-out: 24 Hr. MIC
[6] = test system: Bacteroides fragilis sp. fragilis 62; experiment: as above; format: cell-based; conditions: agar dilution, 37° C., Bacteroides fragilis sp. fragilis 62; for MIC: Bacteroides fragilis, 24 h, read-out: 24 Hr. MIC
[7] = test system: Bacteroides fragilis sp. vulgatis 1563; experiment: as above; format: cell-based; conditions: agar dilution, 37° C., Bacteroides fragilis sp. vulgatis 1563; for MIC: Bacteroides fragilis, 24 h, read-out: 24 Hr. MIC
[8] = test system: Bacteroides fragilis sp. thetaiotaomicron 1438; experiment: as above; format: cell-based; conditions: agar dilution, 37° C., Bacteroides fragilis sp. thetaiotaomicron 1438; for MIC: Bacteroides fragilis, 24 h, read-out: 24 Hr. MIC
[9] = test system: Actinomyces israelii W855; experiment: as above; format: cell-based; conditions: 24 h, agar dilution, 37° C., read-out: 24 Hr. MIC
[10] = test system: Clostridium perfringens 81; experiment: microbe, parasite or virus in culture; format: cell-based; conditions: for MIC: Clostridium perfringens, 81, 24 h, read-out: 24 Hr. MIC, agar dilution, 37° C.; for 24 Hr. MIC: agar dilution, 37° C.
[11] = test system: Peptococcus asaccharolyticus 1302; experiment: Agar dilution susceptibility of anaerobic bacteria (Chart 1); format: cell-based; conditions: agar dilution, 37° C., Peptococcus asaccharolyticus 1302; for MIC: Peptoniphilus asaccharolyticus, 1302, 24 h, read-out: 24 Hr. MIC
[12] = test system: Peptococcus prevoti 1281; experiment: as above; format: cell-based; conditions: for MIC: 24 h, read-out: 24 Hr. MIC, agar dilution, 37° C.; for 24 Hr. MIC: agar dilution, 37° C.
[13] = test system: Peptostreptococcus anaerobius 1428; experiment: as above; format: cell-based; conditions: agar dilution, 37° C., Peptostreptococcus anaerobius 1428; for MIC: Peptostreptococcus anaerobius, 1428, 24 h, read-out: 24 Hr. MIC
[14] = test system: Peptostreptococcus intermedius 1264; experiment: as above; format: cell-based; conditions: agar dilution, 37° C., Peptostreptococcus intermedius 1264; for MIC: Peptostreptococcus, 1264, 24 h, read-out: 24 Hr. MIC
[15] = test system: Propionibacterium acnes 79; experiment: as above; format: cell-based; conditions: agar dilution, 37° C., Propionibacterium acnes 79; for MIC: Cutibacterium acnes, 79, 24 h, read-out: 24 Hr. MIC
[16] = test system: Bacteroides melaninogenicus 1856/28; experiment: as above; format: cell-based; conditions: agar dilution, 37° C., Bacteroides melaninogenicus 1856/28; for MIC: Prevotella intermedia, 1856/28, 24 h, read-out: 24 Hr. MIC
[17] = test system: Bacteroides vulgatis 1211; experiment: as above; format: cell-based; conditions: agar dilution, 37° C., Bacteroides vulgatis 1211; for MIC: Bacteroides, 1211, 24 h, read-out: 24 Hr. MIC
[18] = test system: Fusobacterium symbiosum 1470; experiment: as above; format: cell-based; conditions: agar dilution, 37° C., Fusobacterium symbiosum 1470; for MIC: Fusobacterium, 1470, 24 h, read-out: 24 Hr. MIC
[19] = test system: Fusobacterium necrophorum 6054A; experiment: as above; format: cell-based; conditions: agar dilution, 37° C., Fusobacterium necrophorum 6054A; for MIC: Fusobacterium necrophorum, 6054A, 24 h, read-out: 24 Hr. MIC
[20] = test system: Salmonella typhimurium; experiment: Control of infections caused by Salmonella typhimurium in chickens (Chart 2); format: in vivo; conditions: 60 mg./kg. subcutaneous, day-old chicks, 5 per group, 6 days observation
Description: The efficacy of the novel compounds in the control of infections caused by Salmonella typhimurium in chickens was evaluated in the following manner. The test was carried out using day-old chicks weighing approximately 35 g. each. The chicks were divided into groups of 5 chicks per each dosage level. A portion of the chicks received the test compound which was suspended in 0.2 ml. of polyethylene glycol 200 and administered subcutaneously in the neck. […] All the chicks were challenged with a 1:200 dilution of a culture of the organism, 0.1 ml. of the dilution being injected into each chick in the leg intramuscularly. […] The test compounds are identified in the same manner as set forth in experiment 1. In the chart, column 1 lists the compounds tested; column 2, the dosage of test compound in mg./kg.; and column 3, the survival ratio.

Row | SMILES | MIC [1] [µg/mL] | MIC [2] [µg/mL] | MIC [3] [µg/mL] | MIC [4] [µg/mL] | MIC [5] [µg/mL] | MIC [6] [µg/mL] | MIC [7] [µg/mL] | MIC [8] [µg/mL] | MIC [9] [µg/mL] | MIC [10] [µg/mL] | MIC [11] [µg/mL] | MIC [12] [µg/mL] | MIC [13] [µg/mL] | MIC [14] [µg/mL] | MIC [15] [µg/mL] | MIC [16] [µg/mL] | MIC [17] [µg/mL] | MIC [18] [µg/mL] | MIC [19] [µg/mL] | 24 Hr. MIC [7] [µg/mL] | further results
1 | CCC[C@@H]1C[C@@H](C(=O)N[C@@H]([C@H]2O[C@H](SC)[C@H](O)[C@@H](O)[C@H]2O)[C@H](C)Cl)N(C)C1 [C, clindamycin, reference compound] | 0.125 (≈ 0.294 µM) | 1 (≈ 2.35 µM) | 1 (≈ 2.35 µM) | 0.25 (≈ 0.588 µM) | 0.125 (≈ 0.294 µM) | 0.25 (≈ 0.588 µM) | 0.125 (≈ 0.294 µM) | 0.5 (≈ 1.18 µM) | ≤ 0.5 | 4 (≈ 9.41 µM) | ≤ 0.5 | 32 (≈ 75.3 µM) | ≤ 0.5 | 1 (≈ 2.35 µM) | ≤ 0.5 | ≤ 0.5 | ≤ 0.5 | ≤ 0.5 | ≤ 0.5 | – | –
2 | CCOC(=O)C(=O)Nc1c(C#N)c(-c2ncc([N+](=O)[O-])n2C)nn1C [Example 1, N-[4-Cyano-1-methyl-3-(1-methyl-5-nitroimidazol-2-yl)pyrazol-5-yl]oxamic acid, ethyl ester] | 0.25 (≈ 0.72 µM) | 0.125 (≈ 0.36 µM) | 0.25 (≈ 0.72 µM) | 0.125 (≈ 0.36 µM) | 0.25 (≈ 0.72 µM) | – | – | 0.25 (≈ 0.72 µM) | > 64 | 0.5 (≈ 1.44 µM) | – | ≤ 0.25 | ≤ 0.25 | – | 32 (≈ 92.1 µM) | – | ≤ 0.25 | ≤ 0.25 | ≤ 0.25 | 0.125 | 24 Hr. MIC [6]: 0.25 µg/mL; 24 Hr. MIC [11]: 1.0 µg/mL; 24 Hr. MIC [14]: 16 µg/mL; 24 Hr. MIC [16]: 16 µg/mL; Survival Ratio [20]: 4/5
3 | CCOC(=O)C(=O)Nc1c(C#N)c(-c2ncc([N+](=O)[O-])n2C)nn1C [Example 2, N-[4-Cyano-1-methyl-3-(1-methyl-5-nitroimidazol-2-yl)pyrazol-5-yl]oxamic acid, ethyl ester, sodium salt] | – | – | – | – | – | – | – | – | – | – | – | – | – | – | – | – | – | – | – | – | 24 Hr. MIC ([1]; sodium salt): 0.25 µg/mL; 24 Hr. MIC ([2]; sodium salt): 0.25 µg/mL; 24 Hr. MIC ([4]; sodium salt): 0.25 µg/mL; 24 Hr. MIC ([5]; sodium salt): 0.5 µg/mL; 24 Hr. MIC ([6]; sodium salt): 0.125 µg/mL; 24 Hr. MIC ([7]; sodium salt): 0.5 µg/mL; 24 Hr. MIC ([8]; sodium salt): 0.25 µg/mL; 24 Hr. MIC ([10]; sodium salt): ≤ 0.25 µg/mL; 24 Hr. MIC ([11]; sodium salt): ≤ 0.25 µg/mL; 24 Hr. MIC ([12]; sodium salt): 0.5 µg/mL; 24 Hr. MIC ([13]; sodium salt): ≤ 0.25 µg/mL; 24 Hr. MIC ([14]; sodium salt): > 64 µg/mL; 24 Hr. MIC ([15]; sodium salt): > 64 µg/mL; 24 Hr. MIC ([16]; sodium salt): 16 µg/mL; 24 Hr. MIC ([17]; sodium salt): ≤ 0.25 µg/mL; 24 Hr. MIC ([18]; sodium salt): ≤ 0.25 µg/mL; 24 Hr. MIC ([19]; sodium salt): ≤ 0.25 µg/mL; Survival Ratio ([20]; sodium salt): 2/5
4 | Cn1nc(-c2ncc([N+](=O)[O-])n2C)c(C#N)c1NC(=O)C(=O)NN [Example 6, 5-[4-Cyano-1-methyl-3-(1-methyl-5-nitroimidazol-2-yl)pyrazol5-yl]semioxamazide] | 0.5 (≈ 1.5 µM) | 0.25 (≈ 0.75 µM) | 0.5 (≈ 1.5 µM) | 0.25 (≈ 0.75 µM) | 0.25 (≈ 0.75 µM) | 0.5 (≈ 1.5 µM) | 0.125 (≈ 0.375 µM) | 1 (≈ 3 µM) | > 64 | – | – | – | ≤ 0.25 | 32 (≈ 96 µM) | 32 (≈ 96 µM) | 8 (≈ 24 µM) | – | ≤ 0.25 | ≤ 0.25 | – | 24 Hr. MIC [10]: 0.5 µg/mL; 24 Hr. MIC [11]: ≤ 0.25 µg/mL; 24 Hr. MIC [12]: 0.5 µg/mL; 24 Hr. MIC [17]: ≤ 0.25 µg/mL; Survival Ratio [20]: 5/5
5 | Cn1nc(-c2ncc([N+](=O)[O-])n2C)c(C#N)c1NC(=O)C(=O)c1ccccc1 [Example 10, N-[4-cyano-1-methyl-3-(1-methyl-5-nitroimidazol-2-yl)pyrazol-5-yl]-2-phenylglyoxylamide] | ≤ 0.03 | ≤ 0.03 | – | ≤ 0.03 | ≤ 0.03 | ≤ 0.03 | – | – | > 64 | 1 (≈ 2.64 µM) | 1 (≈ 2.64 µM) | – | – | 64 (≈ 169 µM) | 64 (≈ 169 µM) | 32 (≈ 84.4 µM) | – | ≤ 0.03 | 0.5 (≈ 1.32 µM) | 0.06 | 24 Hr. MIC [3]: ≤ 0.03 µg/mL; 24 Hr. MIC [8]: ≤ 0.03 µg/mL; 24 Hr. MIC [12]: 16 µg/mL; 24 Hr. MIC [13]: 1.0 µg/mL; 24 Hr. MIC [17]: 4 µg/mL
